Bounds are passed on as bounds.

Test [1] deals with Cyclin-dependent kinase 5/CDK5 activator 1 (Homo sapiens) (UniProt Q00535+Q15078). Nature of the test: Selectivity interaction (Kinase panel (Z-LYTE Assay)) EUB0001632a CDK5. Type of test: protein-complex assay. The following applies: at 10 µM.
In test [2] the target is Receptor tyrosine-protein kinase erbB-3 (Homo sapiens) (UniProt P21860). Nature of the test: Selectivity interaction (KinomeScan (DiscoverX)) EUB0001619a ERBB3. Particulars: at 1 µM.
Test [3] concerns the target T1, Glycogen synthase kinase-3 beta (Homo sapiens, UniProt P49841). Nature of the test: Selectivity interaction (KinomeScan (DiscoverX)) EUB0001619a GSK3B. Particulars: at 1 µM.
Test [4] concerns the target Ribosomal protein S6 kinase alpha-3 (Homo sapiens, UniProt P51812). Nature of the test: Selectivity interaction (ActivX KiNativ screen (ex vivo kinase selectivity in human PBMCs)) EUB0001619a RPS6KA3. Type of test: cell-based. The following applies: PBMC, at 1 µM.
The target of test [5] is CDK9/cyclin T1 (Homo sapiens) (UniProt O60563+P50750). Description: Selectivity interaction (Kinase panel (Invitrogen)) EUB0000639a CDK9. Format: protein-complex assay. Particulars: at 200 nM.
Test [6] concerns the target Cyclin-dependent kinase 3 (Homo sapiens) (UniProt Q00526). Description: Selectivity interaction (Ambit KINOMEscan and KiNATiv profiling in Jurkat cells) EUB0000090b CDK3. Type of test: cell-based. Particulars: at 1 µM.
For test [7], the target named is Mu-type opioid receptor (Homo sapiens, UniProt P35372). Nature of the test: Selectivity interaction (Panel of kinases, GPCRs, ion channels and transporters (enzymatic assay)) EUB0000223bCl OPRM1.
Test [8] deals with Cyclin-dependent kinase 7 (Homo sapiens, UniProt P50613). Description: Selectivity interaction (KinomeScan (DiscoverX)) EUB0000618a CDK7. The following applies: at 10 µM.
Test [9] has as its target T2, Serine/threonine-protein kinase Nek11 (Homo sapiens) (UniProt Q8NG66).
T2 sequence (whole entry): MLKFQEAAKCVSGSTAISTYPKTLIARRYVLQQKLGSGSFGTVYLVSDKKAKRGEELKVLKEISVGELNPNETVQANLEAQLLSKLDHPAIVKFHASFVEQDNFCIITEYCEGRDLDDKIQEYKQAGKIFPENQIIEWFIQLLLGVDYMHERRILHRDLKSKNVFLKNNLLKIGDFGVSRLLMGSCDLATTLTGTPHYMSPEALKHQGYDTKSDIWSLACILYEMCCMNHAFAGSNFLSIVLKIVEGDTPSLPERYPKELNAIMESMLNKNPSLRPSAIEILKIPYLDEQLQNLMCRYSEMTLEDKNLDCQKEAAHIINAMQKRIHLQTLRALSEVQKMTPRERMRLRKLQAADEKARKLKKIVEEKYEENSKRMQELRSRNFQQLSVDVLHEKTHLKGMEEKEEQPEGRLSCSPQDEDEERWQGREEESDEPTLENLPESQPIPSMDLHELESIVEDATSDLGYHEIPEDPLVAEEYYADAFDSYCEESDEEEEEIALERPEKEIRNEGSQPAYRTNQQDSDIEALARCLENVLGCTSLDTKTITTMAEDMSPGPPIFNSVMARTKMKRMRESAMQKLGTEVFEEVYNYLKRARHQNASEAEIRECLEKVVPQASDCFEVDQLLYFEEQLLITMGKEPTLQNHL
Nature of the test: Selectivity interaction (KinomeScan (DiscoverX)) EUB0001079a NEK11. Particulars: at 1 µM.

For test [10], the target named is T3, Serine/threonine-protein kinase haspin (Homo sapiens) (UniProt Q8TF76).
T3 sequence (whole entry): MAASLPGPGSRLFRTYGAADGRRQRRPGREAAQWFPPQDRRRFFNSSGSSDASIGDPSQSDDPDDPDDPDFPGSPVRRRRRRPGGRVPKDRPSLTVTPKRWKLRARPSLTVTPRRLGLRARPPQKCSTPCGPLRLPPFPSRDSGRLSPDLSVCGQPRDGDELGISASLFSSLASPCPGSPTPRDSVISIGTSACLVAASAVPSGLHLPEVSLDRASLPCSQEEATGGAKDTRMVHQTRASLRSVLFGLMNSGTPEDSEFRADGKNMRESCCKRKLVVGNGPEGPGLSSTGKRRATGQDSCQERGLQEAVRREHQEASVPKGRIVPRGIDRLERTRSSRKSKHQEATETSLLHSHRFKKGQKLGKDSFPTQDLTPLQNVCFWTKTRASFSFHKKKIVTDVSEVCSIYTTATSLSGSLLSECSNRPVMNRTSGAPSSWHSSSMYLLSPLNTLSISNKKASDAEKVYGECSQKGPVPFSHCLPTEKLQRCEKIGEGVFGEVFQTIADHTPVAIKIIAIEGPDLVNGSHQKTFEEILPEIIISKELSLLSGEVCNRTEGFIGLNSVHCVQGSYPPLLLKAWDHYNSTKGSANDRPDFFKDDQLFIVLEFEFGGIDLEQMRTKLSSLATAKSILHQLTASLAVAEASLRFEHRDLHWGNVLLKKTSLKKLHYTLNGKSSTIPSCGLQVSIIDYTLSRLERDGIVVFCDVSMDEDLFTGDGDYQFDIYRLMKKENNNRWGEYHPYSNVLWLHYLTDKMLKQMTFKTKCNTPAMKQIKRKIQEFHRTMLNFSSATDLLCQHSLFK
Description: Selectivity interaction (KinomeScan (DiscoverX)) EUB0000229b GSG2. Particulars: at 10 µM.

In test [11] the target is T1, Glycogen synthase kinase-3 beta. Description: Selectivity interaction (Kinase panel (KiNativ target engagement assay in Jurkat cells)) EUB0001635a GSK3B. The following applies: Selectivity number of off-targets 0.0, Selectivity number of targets 233.0, Source Knowledge https://www.sciencedirect.com/science/article/pii/S2451945619300674?via%3Dihub, at 1 µM. Type of test: cell-based.

Test [12] deals with Tyrosine-protein kinase JAK1 (Homo sapiens, UniProt P23458). Description: Selectivity interaction (Kinase panel (KiNativ target engagement assay in Jurkat cells)) EUB0001635a JAK1. Type of test: cell-based. The following applies: Selectivity number of off-targets 0.0, Selectivity number of targets 233.0, Source Knowledge https://www.sciencedirect.com/science/article/pii/S2451945619300674?via%3Dihub, at 1 µM.

The target of test [13] is Mitogen-activated protein kinase 3 (Homo sapiens, UniProt P27361). Description: Selectivity interaction (Kinase panel (KiNativ target engagement assay in Jurkat cells)) EUB0001635a MAPK3. Type of test: cell-based. The following applies: Selectivity number of off-targets 0.0, Selectivity number of targets 233.0, Source Knowledge https://www.sciencedirect.com/science/article/pii/S2451945619300674?via%3Dihub, at 1 µM.
Mitogen-activated protein kinase 3, sequence (P27361 whole entry): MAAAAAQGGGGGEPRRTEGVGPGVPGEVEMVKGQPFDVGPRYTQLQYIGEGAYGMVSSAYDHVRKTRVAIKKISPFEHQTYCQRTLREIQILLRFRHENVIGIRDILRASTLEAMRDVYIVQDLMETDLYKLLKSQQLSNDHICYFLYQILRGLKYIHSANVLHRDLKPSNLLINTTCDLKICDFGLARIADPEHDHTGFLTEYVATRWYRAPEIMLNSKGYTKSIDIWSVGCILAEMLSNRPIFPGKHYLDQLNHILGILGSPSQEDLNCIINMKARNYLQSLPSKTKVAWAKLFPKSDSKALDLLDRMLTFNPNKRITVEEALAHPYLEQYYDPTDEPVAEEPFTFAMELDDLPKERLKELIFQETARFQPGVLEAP

T1 sequence (P49841 whole entry, looked up): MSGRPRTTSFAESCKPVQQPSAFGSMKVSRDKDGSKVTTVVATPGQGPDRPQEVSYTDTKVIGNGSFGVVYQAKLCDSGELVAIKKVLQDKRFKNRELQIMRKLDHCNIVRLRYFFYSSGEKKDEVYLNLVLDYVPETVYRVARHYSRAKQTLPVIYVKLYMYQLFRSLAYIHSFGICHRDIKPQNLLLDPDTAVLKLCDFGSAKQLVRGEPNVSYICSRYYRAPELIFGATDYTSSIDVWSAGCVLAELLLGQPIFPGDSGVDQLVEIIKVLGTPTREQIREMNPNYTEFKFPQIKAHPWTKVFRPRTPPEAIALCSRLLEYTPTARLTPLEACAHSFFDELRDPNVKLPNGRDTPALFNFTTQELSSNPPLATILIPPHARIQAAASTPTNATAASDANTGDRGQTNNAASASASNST
Cyclin-dependent kinase 5/CDK5 activator 1 (Homo sapiens), sequence (Q00535 whole entry): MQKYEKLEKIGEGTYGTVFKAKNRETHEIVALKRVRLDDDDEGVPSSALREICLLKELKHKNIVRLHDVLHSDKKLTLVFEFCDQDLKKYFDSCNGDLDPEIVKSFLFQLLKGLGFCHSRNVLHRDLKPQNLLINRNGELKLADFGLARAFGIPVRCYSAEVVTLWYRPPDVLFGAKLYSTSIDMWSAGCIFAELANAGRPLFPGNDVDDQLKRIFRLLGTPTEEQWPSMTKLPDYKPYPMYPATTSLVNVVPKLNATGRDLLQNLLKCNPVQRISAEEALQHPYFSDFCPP
Cyclin-dependent kinase 5/CDK5 activator 1 (Homo sapiens), sequence (Q15078 99-307 partner limits assumed): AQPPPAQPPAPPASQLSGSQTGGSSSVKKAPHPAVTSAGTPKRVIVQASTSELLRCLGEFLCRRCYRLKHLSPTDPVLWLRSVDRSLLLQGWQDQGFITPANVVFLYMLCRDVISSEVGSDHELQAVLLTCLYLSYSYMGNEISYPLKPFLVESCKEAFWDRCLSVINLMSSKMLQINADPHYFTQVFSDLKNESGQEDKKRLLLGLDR
Cyclin-dependent kinase 3 (Homo sapiens), sequence (Q00526 whole entry, looked up): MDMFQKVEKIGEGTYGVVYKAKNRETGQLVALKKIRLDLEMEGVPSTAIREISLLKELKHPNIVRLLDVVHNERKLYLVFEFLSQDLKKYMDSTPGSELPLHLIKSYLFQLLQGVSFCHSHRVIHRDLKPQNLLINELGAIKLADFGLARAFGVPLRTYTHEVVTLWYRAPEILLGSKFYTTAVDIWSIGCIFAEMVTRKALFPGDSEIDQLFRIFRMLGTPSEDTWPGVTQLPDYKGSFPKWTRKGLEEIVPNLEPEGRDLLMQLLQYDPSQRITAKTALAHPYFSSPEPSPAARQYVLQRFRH
Receptor tyrosine-protein kinase erbB-3 (Homo sapiens), sequence (P21860 whole entry): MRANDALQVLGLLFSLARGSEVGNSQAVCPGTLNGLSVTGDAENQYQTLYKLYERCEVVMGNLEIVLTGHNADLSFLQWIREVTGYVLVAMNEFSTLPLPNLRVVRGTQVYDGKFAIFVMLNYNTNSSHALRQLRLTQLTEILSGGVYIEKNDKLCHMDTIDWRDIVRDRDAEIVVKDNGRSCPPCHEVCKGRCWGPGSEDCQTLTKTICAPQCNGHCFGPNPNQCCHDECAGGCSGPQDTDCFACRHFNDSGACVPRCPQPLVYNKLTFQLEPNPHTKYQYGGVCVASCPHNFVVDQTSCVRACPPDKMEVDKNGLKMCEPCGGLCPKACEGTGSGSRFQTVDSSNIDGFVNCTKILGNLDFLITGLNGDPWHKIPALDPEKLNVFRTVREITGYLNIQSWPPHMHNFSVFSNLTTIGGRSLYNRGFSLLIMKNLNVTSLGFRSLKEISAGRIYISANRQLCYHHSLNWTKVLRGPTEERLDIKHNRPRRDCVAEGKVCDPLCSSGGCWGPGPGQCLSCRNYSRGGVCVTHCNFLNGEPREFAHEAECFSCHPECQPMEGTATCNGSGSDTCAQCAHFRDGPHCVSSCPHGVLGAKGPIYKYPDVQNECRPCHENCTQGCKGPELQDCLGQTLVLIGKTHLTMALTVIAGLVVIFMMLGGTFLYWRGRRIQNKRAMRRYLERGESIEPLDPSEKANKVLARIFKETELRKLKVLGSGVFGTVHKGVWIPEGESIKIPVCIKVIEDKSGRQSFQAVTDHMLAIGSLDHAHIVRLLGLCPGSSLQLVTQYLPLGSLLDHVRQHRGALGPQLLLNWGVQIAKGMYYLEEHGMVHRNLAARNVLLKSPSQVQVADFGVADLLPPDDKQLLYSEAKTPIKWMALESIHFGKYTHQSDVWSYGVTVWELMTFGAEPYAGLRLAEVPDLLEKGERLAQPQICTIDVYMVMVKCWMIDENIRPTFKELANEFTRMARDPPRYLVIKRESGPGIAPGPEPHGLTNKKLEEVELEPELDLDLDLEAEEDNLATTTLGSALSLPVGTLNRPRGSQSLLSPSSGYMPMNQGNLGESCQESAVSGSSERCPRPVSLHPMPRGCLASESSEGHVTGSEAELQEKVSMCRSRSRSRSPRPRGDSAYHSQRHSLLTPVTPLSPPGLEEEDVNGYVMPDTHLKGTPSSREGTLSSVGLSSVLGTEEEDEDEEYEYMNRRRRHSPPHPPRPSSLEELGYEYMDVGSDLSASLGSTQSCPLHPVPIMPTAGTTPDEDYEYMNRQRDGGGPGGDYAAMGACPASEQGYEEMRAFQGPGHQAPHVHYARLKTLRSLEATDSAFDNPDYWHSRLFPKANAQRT
Ribosomal protein S6 kinase alpha-3, sequence (P51812 whole entry): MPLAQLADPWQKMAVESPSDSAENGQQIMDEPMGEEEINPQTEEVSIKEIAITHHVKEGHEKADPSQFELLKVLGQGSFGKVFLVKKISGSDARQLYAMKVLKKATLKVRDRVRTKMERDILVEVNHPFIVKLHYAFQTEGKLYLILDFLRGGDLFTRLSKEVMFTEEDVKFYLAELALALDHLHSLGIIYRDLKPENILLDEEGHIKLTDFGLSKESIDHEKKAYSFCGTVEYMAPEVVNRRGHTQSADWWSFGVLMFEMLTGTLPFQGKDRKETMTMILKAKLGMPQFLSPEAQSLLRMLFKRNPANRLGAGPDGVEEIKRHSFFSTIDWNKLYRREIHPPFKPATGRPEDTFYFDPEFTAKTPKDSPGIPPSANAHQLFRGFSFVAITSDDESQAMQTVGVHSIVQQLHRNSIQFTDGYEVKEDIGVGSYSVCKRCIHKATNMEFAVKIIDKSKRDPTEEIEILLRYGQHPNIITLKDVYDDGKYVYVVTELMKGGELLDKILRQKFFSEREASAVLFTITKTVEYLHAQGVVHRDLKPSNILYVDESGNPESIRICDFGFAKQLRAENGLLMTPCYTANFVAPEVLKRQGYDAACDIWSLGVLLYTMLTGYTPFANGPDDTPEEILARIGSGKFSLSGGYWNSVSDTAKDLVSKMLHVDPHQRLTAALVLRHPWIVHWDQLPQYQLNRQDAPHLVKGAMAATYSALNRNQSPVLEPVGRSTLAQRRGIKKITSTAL
Tyrosine-protein kinase JAK1, sequence (P23458 whole entry): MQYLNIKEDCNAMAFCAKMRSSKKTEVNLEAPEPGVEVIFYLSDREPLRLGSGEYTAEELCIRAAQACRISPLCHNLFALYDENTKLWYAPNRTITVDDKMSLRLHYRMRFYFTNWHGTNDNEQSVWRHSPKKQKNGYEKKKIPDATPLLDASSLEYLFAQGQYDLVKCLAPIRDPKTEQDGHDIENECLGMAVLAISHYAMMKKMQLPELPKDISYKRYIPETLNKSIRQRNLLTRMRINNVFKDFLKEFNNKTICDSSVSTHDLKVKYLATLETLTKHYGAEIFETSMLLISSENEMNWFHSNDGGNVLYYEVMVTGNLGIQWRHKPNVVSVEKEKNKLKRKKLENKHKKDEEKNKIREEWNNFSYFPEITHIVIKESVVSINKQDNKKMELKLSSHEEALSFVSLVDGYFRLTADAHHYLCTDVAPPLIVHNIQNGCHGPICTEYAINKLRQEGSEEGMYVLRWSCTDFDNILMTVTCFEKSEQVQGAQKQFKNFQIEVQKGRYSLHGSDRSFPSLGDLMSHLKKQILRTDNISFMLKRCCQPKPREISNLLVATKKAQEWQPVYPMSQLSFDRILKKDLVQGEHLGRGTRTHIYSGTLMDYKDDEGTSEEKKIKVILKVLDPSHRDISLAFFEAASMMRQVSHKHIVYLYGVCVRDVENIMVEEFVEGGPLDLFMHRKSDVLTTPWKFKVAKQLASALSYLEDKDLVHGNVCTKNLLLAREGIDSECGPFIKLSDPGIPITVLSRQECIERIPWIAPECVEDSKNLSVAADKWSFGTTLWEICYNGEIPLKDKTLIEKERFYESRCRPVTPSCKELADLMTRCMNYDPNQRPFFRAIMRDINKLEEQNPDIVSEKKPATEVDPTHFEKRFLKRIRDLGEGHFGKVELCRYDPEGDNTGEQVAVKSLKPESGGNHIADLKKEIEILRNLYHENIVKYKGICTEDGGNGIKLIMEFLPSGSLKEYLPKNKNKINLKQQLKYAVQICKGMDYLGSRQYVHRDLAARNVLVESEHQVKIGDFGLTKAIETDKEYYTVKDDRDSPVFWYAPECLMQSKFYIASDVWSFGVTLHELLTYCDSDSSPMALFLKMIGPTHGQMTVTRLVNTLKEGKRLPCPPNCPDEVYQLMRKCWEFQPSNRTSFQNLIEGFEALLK

`Cn1cc(-n2cnc3c(NCc4nc5cc(Cl)c(Cl)cc5[nH]4)nc(N4CCOCC4)nc32)cn1`: the % of control in test [1] came to 3.1%.
Turning to `N#Cc1cccc(-c2c[nH]c3ncnc(N4CCOCC4)c23)c1`, the % of control is 51% in [2] and 94% in test [3]. Moreover, the % of inhibition in test [4] came out at 21%.
As for `CC[C@@H]1[C@H](F)C(=O)N[C@@H]1COc1nccc2cc(C(N)=O)c(OC)cc12` [ZIMLOVISERTIB], in [5], the % of inhibition is 3.66%.
In [6], `CN(C)C/C=C/C(=O)Nc1ccc(C(=O)N2CCCC(Nc3ncc(Cl)c(-c4c[nH]c5ccccc45)n3)C2)cc1` (stereo not drawn) displayed a % of control of 97%.
`COc1cc(C(=O)N2CC[C@@H](O)[C@@H](N)C2)cc2nc(-c3cc4ccccc4n3CC3CC3)n(C)c12` had a pXC50 in [7] of less than 4 M.
In [8], `O[C@H]1CC[C@H](Nc2ncc3nc(Nc4c(F)cc(F)cc4F)n([C@H]4CCOC4)c3n2)CC1` registered a % of control of 100%.
`Nc1cnc(N2CCc3cc(S(=O)(=O)Nc4c(F)cc(Cl)cc4F)cc(N4CCCC4=O)c32)nc1` [TP-020n] gave a % of control in [9] of 100%.
In test [10], `COc1cc(N(C)c2ccnc3ccc(C(F)(F)F)cc23)cc(OC)c1OC` came in with a % binding of 43%.
Regarding `C=CC(=O)Nc1ccc(C(=O)Nc2[nH]nc3c2CN(C(=O)N[C@H](CN(C)C)c2ccccc2)C3(C)C)cc1`, the % of engagement in [11] was -4.3%; in [12], 3.6%; in test [13], -1.4%.
